Consider five compounds from patent publication US12110527B2, “Production of symmetrical bolaform sophorosides” (priority 2018, dated 2024).

The subject of the assay is S. bombicola Δcyp52M1Δfao1 strain. As to the kind of experiment: Shake flask cultivation fed with different primary fatty alcohols: follow-up of growth (CFU) and glucose consumption. The note with it: for glucose consumption rate: alcohol fed at 1.8 (w/v) % after 48 h of cultivation, shake flask. The class given is cell-based, Starmerella bombicola. The procedure: Production experiments using S. bombicola were performed using the production medium described by Lang et al. (2000). For shake flask experiments, 5 ml tube cultures were set up 24 h (30° C.), before transferring to shake flasks (4% inoculation). Production experiments were executed with feeding of fatty alcohols: oleyl alcohol, stearyl alcohol, lauryl alcohol, myristyl alcohol or cetyl alcohol which were added after 48 h of cultivation. The Δcyp52M1Δfao1 strain was also assessed without addition of the hydrophobic alcohol. For every production experiment, cultivation was stopped when glucose was depleted from the medium. Experiments were performed in duplicate, and average values with standard deviations are presented.
Optical density (OD) of cultures was measured at 600 nm using the Jasco V 630 Bio spectrophotometer (Jasco Europe) of 1 mL samples diluted with physiological solution (9 g/L NaCl). The viability of yeast cells in cultivation experiments was assessed by determining colony forming units (CFUs) which were expressed as the average logarithm of CFUs per culture volume as log (CFU/mL) (Saerens et al., 2011). Alternatively, Cell Dry Weight (CDW) was determined by centrifuging 1 mL fermentation samples at 14000 rpm for 5 min in tared Eppendorf tubes, and subsequently washing the cell pellets twice with 1 mL physiological solution. The remaining cell pellet was put into a 70° C. oven for 5 days and then weighed afterwards. The CDW (g/L) was calculated after subtraction of the empty weight of the Eppendorf tube.
Glucose concentrations were determined using the 2700 Select Biochemistry Analyser (YSI Inc.) or using Ultra Performance Liquid Chromatography (Waters Acquity H-Class UPLC), coupled with an Evaporative Light Scattering Detector (Waters Acquity ELSD Detector) (UPLC-ELSD). For the UPLC analysis, an Acquity UPLC BEH Amide column (130 Å, 1.7 μm, 2.1×100 mm) (Waters) was used at 35° C. and an isocratic flow rate of 0.5 mL/min of 75% acetonitrile and 0.2% triethylamine (TEA) was applied (5 min/sample). For the ELS detection, the nebulizer was cooled to 15° C. and the drift tube was kept at a temperature of 50° C. […] To express glucose consumption, a linear curve was fitted through the obtained glucose concentrations by UPLC-ELSD, and the respective slope was taken and denoted as the glucose consumption rate (g/L·h).
When two different groups were compared, the Welch's test was performed with a 95% confidence level using GraphPad Prism 7.04 software. For multiple group comparisons, analysis of variance (ANOVA) with Bonferroni's multiple comparison test correction with a 95% confidence level using GraphPad Prism 7.04 software was employed. For parameters pH, CFU, OD and glucose consumption, average values were taken when the yeast cells attained their stationary phase (after 48 h of cultivation). In general, data represented in graphs are the average and standard deviation of two experimental replicates (unless stated otherwise).
Unexpectedly, no successful uniform production of either bola SSs or alkyl SSs was obtained for the Δcyp52M1Δfao1 strain when feeding with oleyl alcohol. Instead, mixtures of both were found, although the majority of the novel glycolipids were (acetylated) bola SSs and only minor amounts of alkyl SS were produced. The production of tetra-acetylated bola SS was unexpected, since the CYP52M1 enzyme was thought to be the only enzyme involved in glycolipid production thus far in S. bombicola. To assess the influence on the chain lengths of primary alcohols to the glycolipid production, different substrates were fed to the Δcyp52M1Δfao1 strain. The parental strain Δcyp52M1 was assessed in parallel. Medium and long-chain alcohols were selected between a chain length of 12 and 18, similarly as reported by Davila et al. (1994) for alkanes. Similarly as for the experiments described above, the hydrophobic substrate was added after 48 h of cultivation.

Turning to `CCCCCCCCCCCCCCCCO` [cetyl alcohol], the glucose consumption rate came to 0.38 g/L·h.

`CCCCCCCCCCCCO` [lauryl alcohol]: the “glucose consumption after addition of the alcohol” value (addition 48 h after inoculation) is recorded as “stopped”. The “CFUs (log (CFU/mL))” value (after addition of the alcohol, 1.8 (w/v) % added after 48 h of cultivation, in contrast to all other fed substrates (FIG. 8A)) is given as “significant drop”. The “glucose consumption rate after it initiated again” value (only Δcyp52M1Δfao1 strain, 100 h after substrate addition, until all glucose was depleted) is 0.33 g/L·h.

`CCCCCCCCCCCCCCO` [myristyl alcohol] had a glucose consumption rate of 0.48 g/L·h.

As to `CCCCCCCC/C=C\CCCCCCCCO` [oleyl alcohol], the glucose consumption rate stood at 0.48 g/L·h.

`CCCCCCCCCCCCCCCCCCO` [stearyl alcohol] displayed a glucose consumption rate of 0.38 g/L·h.
